Experimental findings from ChEMBL document CHEMBL5291721, “A preclinical secondary pharmacology resource illuminates target-adverse drug reaction associations of marketed drugs” (Nat Commun, 2023) are described below.

For one assay, the target named is D(3) dopamine receptor (Homo sapiens, UniProt P35462).
In a further assay the target is T1, Thromboxane A2 receptor (Homo sapiens, UniProt P21731).
T1 sequence (P21731 whole entry): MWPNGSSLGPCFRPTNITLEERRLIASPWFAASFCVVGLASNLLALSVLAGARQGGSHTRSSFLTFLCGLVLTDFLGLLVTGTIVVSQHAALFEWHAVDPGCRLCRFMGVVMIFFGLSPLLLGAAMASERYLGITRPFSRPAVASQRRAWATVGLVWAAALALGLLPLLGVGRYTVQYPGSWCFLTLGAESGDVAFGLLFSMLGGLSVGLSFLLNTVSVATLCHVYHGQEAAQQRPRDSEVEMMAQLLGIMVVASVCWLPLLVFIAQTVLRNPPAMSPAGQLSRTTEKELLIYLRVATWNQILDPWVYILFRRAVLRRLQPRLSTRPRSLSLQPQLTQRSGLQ

The target of the next assay is T2, Glucocorticoid receptor (Homo sapiens, UniProt P04150).
T2 sequence (P04150 whole entry): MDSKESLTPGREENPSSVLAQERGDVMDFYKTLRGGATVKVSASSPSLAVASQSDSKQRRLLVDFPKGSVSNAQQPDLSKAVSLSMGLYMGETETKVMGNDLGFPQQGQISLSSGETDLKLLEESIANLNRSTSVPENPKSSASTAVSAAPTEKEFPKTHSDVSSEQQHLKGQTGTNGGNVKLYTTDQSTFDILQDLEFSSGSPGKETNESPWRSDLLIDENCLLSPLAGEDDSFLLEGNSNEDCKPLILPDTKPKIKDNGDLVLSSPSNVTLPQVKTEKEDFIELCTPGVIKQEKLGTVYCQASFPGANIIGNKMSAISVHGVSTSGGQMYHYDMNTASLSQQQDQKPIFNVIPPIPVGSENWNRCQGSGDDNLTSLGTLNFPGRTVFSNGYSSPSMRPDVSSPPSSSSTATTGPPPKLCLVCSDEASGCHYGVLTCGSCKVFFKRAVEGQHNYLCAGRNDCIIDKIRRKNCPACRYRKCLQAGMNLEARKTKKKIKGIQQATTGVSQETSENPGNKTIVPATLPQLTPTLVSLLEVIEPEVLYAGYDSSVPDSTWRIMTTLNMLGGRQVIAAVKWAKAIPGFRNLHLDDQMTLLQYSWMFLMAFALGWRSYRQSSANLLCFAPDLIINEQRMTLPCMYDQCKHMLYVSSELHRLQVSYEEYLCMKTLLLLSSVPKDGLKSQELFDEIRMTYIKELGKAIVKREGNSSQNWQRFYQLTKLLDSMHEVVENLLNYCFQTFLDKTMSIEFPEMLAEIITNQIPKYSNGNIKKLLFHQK

The next assay concerns the target Histamine H3 receptor (Homo sapiens, UniProt Q9Y5N1).
The target of assay [1] is Sodium-dependent noradrenaline transporter (Homo sapiens, UniProt P23975).
Chain of Sodium-dependent noradrenaline transporter (P23975 whole entry): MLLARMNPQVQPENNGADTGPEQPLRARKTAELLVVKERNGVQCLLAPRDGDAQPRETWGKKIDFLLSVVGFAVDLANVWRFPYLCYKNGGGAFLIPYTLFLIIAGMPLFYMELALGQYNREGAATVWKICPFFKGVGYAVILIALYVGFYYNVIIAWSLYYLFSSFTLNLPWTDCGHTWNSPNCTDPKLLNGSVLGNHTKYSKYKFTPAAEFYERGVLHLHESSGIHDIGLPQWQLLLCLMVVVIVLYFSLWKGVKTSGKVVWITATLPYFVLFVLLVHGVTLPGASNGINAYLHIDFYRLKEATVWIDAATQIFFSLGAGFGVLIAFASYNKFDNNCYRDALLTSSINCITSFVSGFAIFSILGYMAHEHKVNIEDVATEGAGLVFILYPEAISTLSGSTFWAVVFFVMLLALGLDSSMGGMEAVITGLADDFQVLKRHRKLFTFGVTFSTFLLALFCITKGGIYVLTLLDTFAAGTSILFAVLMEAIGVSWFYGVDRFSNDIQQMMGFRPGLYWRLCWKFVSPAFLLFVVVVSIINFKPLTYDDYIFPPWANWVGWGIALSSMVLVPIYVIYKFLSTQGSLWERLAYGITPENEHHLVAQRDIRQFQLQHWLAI
The target of assay [2] is Delta-type opioid receptor (Homo sapiens, UniProt P41143).
Chain of Delta-type opioid receptor (P41143 whole entry): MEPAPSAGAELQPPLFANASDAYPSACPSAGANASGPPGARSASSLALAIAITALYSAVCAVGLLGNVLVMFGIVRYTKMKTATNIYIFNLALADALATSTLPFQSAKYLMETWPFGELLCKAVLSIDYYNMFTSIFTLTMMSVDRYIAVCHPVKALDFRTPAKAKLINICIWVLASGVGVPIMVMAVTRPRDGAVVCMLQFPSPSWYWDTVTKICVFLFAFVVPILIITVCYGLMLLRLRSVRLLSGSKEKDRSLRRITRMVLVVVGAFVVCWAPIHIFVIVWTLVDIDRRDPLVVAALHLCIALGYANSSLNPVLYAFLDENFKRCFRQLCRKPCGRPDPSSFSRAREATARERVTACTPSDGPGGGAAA
The target in assay [3] is T3, 5-hydroxytryptamine receptor 2C (Homo sapiens, UniProt P28335).
T3 sequence (P28335 whole entry): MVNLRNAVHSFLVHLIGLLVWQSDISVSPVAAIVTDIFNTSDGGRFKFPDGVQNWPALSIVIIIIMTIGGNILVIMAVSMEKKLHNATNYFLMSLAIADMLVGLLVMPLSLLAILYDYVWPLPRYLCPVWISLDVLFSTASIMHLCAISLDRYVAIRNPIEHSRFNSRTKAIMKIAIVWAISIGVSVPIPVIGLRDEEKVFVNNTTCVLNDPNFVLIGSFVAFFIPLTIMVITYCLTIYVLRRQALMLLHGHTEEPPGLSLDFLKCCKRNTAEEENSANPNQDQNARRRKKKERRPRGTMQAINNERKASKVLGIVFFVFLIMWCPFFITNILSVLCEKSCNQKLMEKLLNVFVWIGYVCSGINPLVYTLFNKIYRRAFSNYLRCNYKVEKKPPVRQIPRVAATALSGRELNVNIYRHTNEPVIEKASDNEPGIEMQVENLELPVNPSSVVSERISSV

For the next assay, the target named is Histamine H2 receptor (Homo sapiens, UniProt P25021). Format: functional, cell-based.
Chain of Histamine H2 receptor (P25021 whole entry): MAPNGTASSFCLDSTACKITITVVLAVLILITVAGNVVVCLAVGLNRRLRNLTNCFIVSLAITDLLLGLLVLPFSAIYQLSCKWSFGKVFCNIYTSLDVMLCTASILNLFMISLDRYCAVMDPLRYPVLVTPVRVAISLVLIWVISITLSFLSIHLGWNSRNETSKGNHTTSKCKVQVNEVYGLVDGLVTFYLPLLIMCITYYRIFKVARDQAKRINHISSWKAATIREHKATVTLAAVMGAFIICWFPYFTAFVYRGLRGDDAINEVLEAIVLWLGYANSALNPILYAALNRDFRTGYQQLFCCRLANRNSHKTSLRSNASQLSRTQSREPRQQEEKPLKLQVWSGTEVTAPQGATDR
The target in assay [4] is Sodium-dependent dopamine transporter (Homo sapiens, UniProt Q01959).
Chain of Sodium-dependent dopamine transporter (Q01959 whole entry): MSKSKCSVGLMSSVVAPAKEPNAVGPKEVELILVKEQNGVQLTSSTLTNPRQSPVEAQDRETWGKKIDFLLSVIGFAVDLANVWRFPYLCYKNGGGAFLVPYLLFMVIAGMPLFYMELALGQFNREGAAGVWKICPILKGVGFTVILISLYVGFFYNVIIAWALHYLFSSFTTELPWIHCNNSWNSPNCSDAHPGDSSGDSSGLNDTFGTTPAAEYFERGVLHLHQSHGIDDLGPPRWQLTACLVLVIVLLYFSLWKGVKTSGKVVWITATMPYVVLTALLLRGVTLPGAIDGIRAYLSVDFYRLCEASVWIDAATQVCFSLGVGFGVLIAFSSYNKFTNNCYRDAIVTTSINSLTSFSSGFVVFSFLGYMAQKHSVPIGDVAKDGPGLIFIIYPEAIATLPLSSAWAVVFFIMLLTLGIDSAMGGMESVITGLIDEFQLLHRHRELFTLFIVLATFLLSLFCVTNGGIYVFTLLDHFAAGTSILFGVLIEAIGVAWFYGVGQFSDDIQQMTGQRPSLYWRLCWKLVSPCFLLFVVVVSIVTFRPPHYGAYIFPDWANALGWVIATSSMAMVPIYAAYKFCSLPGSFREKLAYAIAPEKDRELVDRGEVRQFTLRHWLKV
Another assay addresses T4, Progesterone receptor (Homo sapiens, UniProt P06401).
T4 sequence (P06401 whole entry): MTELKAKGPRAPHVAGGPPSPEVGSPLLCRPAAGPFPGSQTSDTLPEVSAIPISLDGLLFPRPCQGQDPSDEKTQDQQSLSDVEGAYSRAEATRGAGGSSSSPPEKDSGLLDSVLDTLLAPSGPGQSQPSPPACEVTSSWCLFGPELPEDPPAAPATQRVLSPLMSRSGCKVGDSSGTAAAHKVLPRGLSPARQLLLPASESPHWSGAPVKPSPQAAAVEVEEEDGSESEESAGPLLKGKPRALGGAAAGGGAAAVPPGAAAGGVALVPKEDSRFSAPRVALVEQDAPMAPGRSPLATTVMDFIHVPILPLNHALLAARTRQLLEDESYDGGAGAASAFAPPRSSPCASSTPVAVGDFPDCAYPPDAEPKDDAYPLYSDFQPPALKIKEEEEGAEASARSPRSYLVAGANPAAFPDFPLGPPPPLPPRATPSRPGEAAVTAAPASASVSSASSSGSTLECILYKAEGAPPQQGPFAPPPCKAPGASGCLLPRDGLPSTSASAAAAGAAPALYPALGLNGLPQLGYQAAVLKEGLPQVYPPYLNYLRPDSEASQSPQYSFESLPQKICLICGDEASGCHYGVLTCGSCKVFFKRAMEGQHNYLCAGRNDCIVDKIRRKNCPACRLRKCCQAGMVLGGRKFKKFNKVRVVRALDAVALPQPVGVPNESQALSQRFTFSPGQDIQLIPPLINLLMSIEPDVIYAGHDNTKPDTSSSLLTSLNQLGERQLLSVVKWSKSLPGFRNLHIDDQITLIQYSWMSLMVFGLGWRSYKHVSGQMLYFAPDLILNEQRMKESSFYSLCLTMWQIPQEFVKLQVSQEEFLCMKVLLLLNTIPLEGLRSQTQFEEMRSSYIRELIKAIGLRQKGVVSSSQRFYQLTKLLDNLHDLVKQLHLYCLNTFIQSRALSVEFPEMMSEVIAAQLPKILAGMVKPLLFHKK
Format: functional.
Also: assay procedure not described here.

Chain of D(3) dopamine receptor (P35462 whole entry): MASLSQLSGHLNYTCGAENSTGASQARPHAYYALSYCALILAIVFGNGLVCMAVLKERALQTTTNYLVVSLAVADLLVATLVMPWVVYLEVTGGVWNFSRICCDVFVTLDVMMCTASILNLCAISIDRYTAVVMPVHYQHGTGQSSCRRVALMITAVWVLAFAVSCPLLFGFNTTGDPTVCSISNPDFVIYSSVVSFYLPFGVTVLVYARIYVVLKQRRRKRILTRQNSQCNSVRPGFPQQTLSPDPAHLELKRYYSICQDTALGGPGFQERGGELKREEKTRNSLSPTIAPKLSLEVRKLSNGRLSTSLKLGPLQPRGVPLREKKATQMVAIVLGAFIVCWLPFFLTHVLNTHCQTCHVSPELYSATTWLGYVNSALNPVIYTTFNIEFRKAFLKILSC
Chain of Histamine H3 receptor (Q9Y5N1 whole entry): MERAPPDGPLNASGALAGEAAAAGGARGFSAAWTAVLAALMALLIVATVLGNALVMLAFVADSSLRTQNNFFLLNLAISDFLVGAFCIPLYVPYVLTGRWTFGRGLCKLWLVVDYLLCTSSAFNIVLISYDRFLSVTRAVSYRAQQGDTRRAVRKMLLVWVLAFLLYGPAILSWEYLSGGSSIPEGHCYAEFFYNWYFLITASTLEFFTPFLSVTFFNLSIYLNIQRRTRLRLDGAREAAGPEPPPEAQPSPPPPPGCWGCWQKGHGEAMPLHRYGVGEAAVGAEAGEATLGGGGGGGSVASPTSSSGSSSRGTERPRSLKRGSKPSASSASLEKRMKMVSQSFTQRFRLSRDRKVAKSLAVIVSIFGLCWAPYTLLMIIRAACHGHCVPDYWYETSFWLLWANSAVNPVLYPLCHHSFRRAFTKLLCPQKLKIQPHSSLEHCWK

With `CC1=C(CC(=O)O)c2cc(F)ccc2/C1=C\c1ccc([S+](C)[O-])cc1` (centres undefined), the AC50 (in general, the concentration at which the activity in the assay is half-maximal) on D(3) dopamine receptor is above 30 µM; at Thromboxane A2 receptor, above 30 µM; at Glucocorticoid receptor, above 30 µM; on Histamine H3 receptor, above 10 µM; in assay [1] it was above 30 µM; in assay [2], above 30 µM. Further, the concentration at half-maximal activity (AC50) in [3] was above 30 µM; at Histamine H2 receptor it was above 10 µM; in assay [4], above 30 µM.

With `Cc1nnc2n1-c1ccc(Cl)cc1C(c1ccccc1)=NC2` [ALPRAZOLAM], the AC50 was above 10 µM at D(3) dopamine receptor; above 30 µM on Thromboxane A2 receptor; above 30 µM at Glucocorticoid receptor; above 10 µM at Histamine H3 receptor; above 10 µM in assay [1]; above 30 µM in assay [2]. The concentration at half-maximal activity (AC50) in [3] was above 30 µM; on Histamine H2 receptor, above 10 µM; in assay [4] it was above 10 µM.

As to `CC(NC(C)(C)C)C(=O)c1cccc(Cl)c1` (centres undefined) [BUPROPION], the AC50 at D(3) dopamine receptor is above 10 µM; on Thromboxane A2 receptor, above 30 µM; at Glucocorticoid receptor it was above 30 µM; on Histamine H3 receptor, above 10 µM; in [2] it was above 10 µM; in [3], above 30 µM. At Histamine H2 receptor, the AC50 is above 10 µM.

For `O=C1CN=C(c2ccccc2Cl)c2cc([N+](=O)[O-])ccc2N1` [CLONAZEPAM], the half-maximal activity concentration (AC50) at D(3) dopamine receptor was above 10 µM; at Thromboxane A2 receptor, above 30 µM; at Glucocorticoid receptor it was above 30 µM; on Histamine H3 receptor, above 10 µM; in assay [1] it was above 10 µM; in assay [2], above 30 µM. Besides, the figures for the AC50 (in assay [3]; at Histamine H2 receptor; in assay [4]) were above 30 µM, above 10 µM and above 10 µM, respectively.

`CC1CC(OC(=O)C(O)c2ccccc2)CC(C)(C)C1` (centres undefined) [CYCLANDELATE]: the concentration at half-maximal activity (AC50) on D(3) dopamine receptor is above 30 µM; on Thromboxane A2 receptor, above 10 µM; at Histamine H3 receptor, above 10 µM; on Progesterone receptor, above 30 µM; in assay [1], above 30 µM; in assay [2] it was above 30 µM. In addition, the AC50 is above 30 µM in [3], above 10 µM at Histamine H2 receptor and above 30 µM in assay [4].

With `OCCN(CCO)c1nc(N2CCCCC2)c2nc(N(CCO)CCO)nc(N3CCCCC3)c2n1` [DIPYRIDAMOLE], the AC50 (on D(3) dopamine receptor; on Thromboxane A2 receptor; in [1]; in assay [2]; in assay [3]; on Histamine H2 receptor) was above 30 µM in each case. In addition, in assay [4], the AC50 is above 30 µM.

On to `CCOC(=O)C1=C(C)NC(C)=C(C(=O)OC)C1c1cccc(Cl)c1Cl` (centres undefined) [FELODIPINE], for which the AC50 was 8.41 µM at Thromboxane A2 receptor; 9.94 µM on Glucocorticoid receptor; above 10 µM at Histamine H3 receptor; above 10 µM in [1]; above 10 µM in assay [2]; above 10 µM in assay [3]. Besides, the AC50 on Histamine H2 receptor is above 10 µM; in [4] it was 13.3 µM.

`CC(=O)OCC(=O)[C@@]1(O)CC[C@H]2[C@@H]3CCC4=CC(=O)CC[C@]4(C)[C@@]3(F)[C@@H](O)C[C@@]21C` [FLUDROCORTISONE ACETATE]: the half-maximal activity concentration (AC50) at D(3) dopamine receptor was above 30 µM; at Thromboxane A2 receptor, above 30 µM; at Histamine H3 receptor, above 30 µM; on Progesterone receptor it was 8.2 µM; in assay [1], above 30 µM; in assay [2], above 30 µM. Also, the AC50 (in [3]; at Histamine H2 receptor; in assay [4]) was above 30 µM throughout.

Consider `CN1C2CCCC1CC(NC(=O)c1nn(C)c3ccccc13)C2` (centres undefined) [GRANISETRON], for which the AC50 at D(3) dopamine receptor was above 10 µM; at Thromboxane A2 receptor, above 30 µM; on Histamine H3 receptor, above 10 µM; in [1] it was above 10 µM; in [2] it was above 10 µM; at Histamine H2 receptor, above 10 µM. This compound also gave an AC50 in assay [4] above 10 µM.

For `N=C(N)NC(=O)Cc1c(Cl)cccc1Cl` [GUANFACINE], the concentration at half-maximal activity (AC50) on D(3) dopamine receptor was 20 µM; on Thromboxane A2 receptor it was above 30 µM; at Glucocorticoid receptor, above 30 µM; in assay [1] it was above 30 µM; in [2], above 30 µM; in assay [3], 10 µM. Also, the half-maximal activity concentration (AC50) (at Histamine H2 receptor; in assay [4]) was above 30 µM throughout.

On to `CC1Cc2ccccc2N1NC(=O)c1ccc(Cl)c(S(N)(=O)=O)c1` (centres undefined) [INDAPAMIDE], for which the AC50 at D(3) dopamine receptor is above 30 µM; on Thromboxane A2 receptor it was above 30 µM; at Histamine H3 receptor it was above 10 µM; in assay [1], above 30 µM; in assay [2] it was above 30 µM; in assay [3] it was above 30 µM. For the same compound, the half-maximal activity concentration (AC50) was above 10 µM at Histamine H2 receptor and above 30 µM in assay [4].

For the compound `CCN(CC)CC(=O)Nc1c(C)cccc1C` [LIDOCAINE], the concentration at half-maximal activity (AC50) on Thromboxane A2 receptor and on Glucocorticoid receptor was above 30 µM in each case.

As to `Nc1cc(N2CCCCC2)nc(N)[n+]1[O-]` [MINOXIDIL], the half-maximal activity concentration (AC50) on D(3) dopamine receptor was above 30 µM; at Thromboxane A2 receptor, above 30 µM; on Glucocorticoid receptor it was above 30 µM; on Histamine H3 receptor, above 10 µM; in assay [1], above 30 µM; in assay [2], above 30 µM. Besides, the concentration at half-maximal activity (AC50) (in [3]; on Histamine H2 receptor; in assay [4]) was above 30 µM each time.

Take `Nc1ccc(S(=O)(=O)Nc2ncccn2)cc1` [SULFADIAZINE]: the half-maximal activity concentration (AC50) at D(3) dopamine receptor was above 30 µM; at Thromboxane A2 receptor, above 10 µM; on Histamine H3 receptor, above 10 µM; at Progesterone receptor, above 10 µM; in [1] it was above 10 µM; in assay [2], above 30 µM. Further, the AC50 in assay [3] was above 30 µM; at Histamine H2 receptor, above 10 µM; in [4] it was above 10 µM.

Take `CCN(C(C)=O)c1cccc(-c2ccnc3c(C#N)cnn23)c1` [ZALEPLON]: the AC50 on D(3) dopamine receptor was above 30 µM; on Thromboxane A2 receptor, above 30 µM; on Histamine H3 receptor, above 10 µM; at Progesterone receptor, above 30 µM; in assay [1], above 30 µM; in assay [2], above 30 µM. In addition, the results for the AC50 (in assay [3]; on Histamine H2 receptor; in assay [4]) were above 30 µM, above 10 µM and above 30 µM, respectively.
